Data as given in US20230277534A1 (Plexxikon Inc., priority 2011, published 2023).

Experiments:
[1] = biological target: B-Raf V600E (Homo sapiens (Human), UniProt P15056, V600E); assay: B-Raf V600E kinase biochemical activity assay (AlphaScreen, biotin-MEK1 substrate); details: 100 μM ATP
Method: Assays for biochemical and cell based activity are known in the art, for example, as described in PCT publication WO 2007/002433, the disclosure of which is hereby incorporated by reference as it relates to such assays. For example, the biochemical activity IC50 values are determined with respect to inhibition of B-Raf V600E kinase activity or p-Erk kinase activity, where inhibition of phosphorylation of a peptide substrate is measured as a function of compound concentration. Compounds to be tested are diluted in dimethyl sulfoxide to a concentration of 0.1 mM. These are serially diluted 15 μL into 30 μL of dimethyl sulfoxide seven times in 96 well plates for a total of 8 dilution points, and for each dilution point 1 μL is added to a well of an assay plate. Plates are prepared such that each well in a 384 well plate contains 1 μL of compound in 10 μL volume with 0.1 ng Raf enzyme (i.e. any of B-Raf, c-Raf-1 or B-Raf V600E, Upstate Biotechnology or prepared by methods known to one of skill in the art), 50 mM HEPES, pH 7.0, 50 mM NaCl, 2 mM MgCl2, 1 mM MnCl2, 0.01% Tween-20, 1 mM DTT, and 100 nM biotin-MEK1 as substrate. The reaction is started with addition of 10 μL of 200 μM ATP (i.e. final 100 μM ATP). After incubation of the kinase reaction for 45 minutes at room temperature, 5 μL/well of Stop Solution is added (25 mM Hepes pH 7.5, 100 mM EDTA, 0.01% BSA with donor beads (Streptavidin coated beads, Perkin Elmer), acceptor beads (Protein A coated, Perkin Elmer), and anti phosphor MEK1/2 antibody (CellSignal), each at final concentration 10 μg/mL). The plates are incubated for 3 hours at room temperature and read on Envision reader (Perkin Elmer). Phosphorylation of Mek1 results in binding of the anti-phosphor-MEK1/2antibody and association of the donor and acceptor beads such that signal correlates with kinase activity. The signal vs. compound concentration is used to determine the IC50.

[2] = system: COLO205 colon adenocarcinoma cells (B-Raf V600E mutation); assay: COLO205 cell growth inhibition (ATPlite); assay type: cell-based; details: Homo sapiens, COLO 205, 72 h, 3 days
Method: Compounds are assessed in a variety of cell based assays.
On day 1, cells are counted, then centrifuged in a conical tube for 5 minutes at 1000 rpm.
On day 2, compound at a maximum concentration of 5 mM is serially diluted 1:3 (e.g. 10 μL with 30 μL dimethyl sulfoxide) for a total of 8 point titration with DMSO as a control. A 1 μL aliquot of each dilution point and control is added to 249 μL growth media and 50 μL is added to a well containing cells, providing 10 μM compound at the maximum concentration point. The cells are incubated for 3 days at 37° C. in 5% CO2.
ATPlite is added 25 μL to each well, shake for 2 minutes, and the cells are incubated at room temperature for 10 minutes, then luminescence is read on Safire reader. The measured luminescence correlates directly with cell number, such that the reading as a function of compound concentration is used to determine the IC50 value.

B-Raf V600E, sequence (P15056 whole entry V600E): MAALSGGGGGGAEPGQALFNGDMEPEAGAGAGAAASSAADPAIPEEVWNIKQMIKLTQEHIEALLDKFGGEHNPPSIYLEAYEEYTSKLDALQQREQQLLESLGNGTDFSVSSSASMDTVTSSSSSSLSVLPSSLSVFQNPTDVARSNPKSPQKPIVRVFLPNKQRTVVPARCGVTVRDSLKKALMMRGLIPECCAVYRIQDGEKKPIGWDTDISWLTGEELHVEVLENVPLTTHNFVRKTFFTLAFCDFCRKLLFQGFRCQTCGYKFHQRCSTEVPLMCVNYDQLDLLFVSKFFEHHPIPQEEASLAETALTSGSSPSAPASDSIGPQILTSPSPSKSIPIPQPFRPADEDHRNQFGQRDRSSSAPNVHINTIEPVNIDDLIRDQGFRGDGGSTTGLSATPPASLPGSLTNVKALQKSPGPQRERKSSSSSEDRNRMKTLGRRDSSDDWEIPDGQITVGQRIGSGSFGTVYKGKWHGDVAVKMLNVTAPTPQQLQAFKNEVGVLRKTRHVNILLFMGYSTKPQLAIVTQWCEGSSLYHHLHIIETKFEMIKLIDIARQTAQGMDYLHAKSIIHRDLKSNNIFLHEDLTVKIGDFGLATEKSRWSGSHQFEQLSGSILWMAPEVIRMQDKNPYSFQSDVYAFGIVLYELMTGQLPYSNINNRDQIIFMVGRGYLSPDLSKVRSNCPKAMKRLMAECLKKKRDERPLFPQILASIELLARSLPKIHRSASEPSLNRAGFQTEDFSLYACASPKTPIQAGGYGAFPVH

SMILES | IC50 [1] [µM] | IC50 [2] [µM]
O=C(c1c(F)ccc(NS(=O)(=O)N2CCCC2)c1F)c1c[nH]c2ncc(F)c(NCC3CC3)c12 [Compound P-0016, N-[3-[4-(cyclopropylmethylamino)-5-fluoro-1H-pyrrolo[2,3-b]pyridine-3-carbonyl]-2,4-difluoro-phenyl]pyrrolidine-1-sulfonamide] | < 0.1 | < 1
COCCS(=O)(=O)Nc1cccc(C(=O)c2c[nH]c3ncc(-c4cnc(OC)nc4)cc23)c1F [Compound P-0065, N-[2-fluoro-3-[5-(2-methoxypyrimidin-5-yl)-1H-pyrrolo[2,3-b]pyridine-3-carbonyl]phenyl]-2-methoxy-ethanesulfonamide] | < 0.1 | > 1
CC(C)CN(C)S(=O)(=O)Nc1cccc(C(=O)c2c[nH]c3ncc(I)cc23)c1F [Compound P-0070, 3-[2-fluoro-3-[[isobutyl(methyl)sulfamoyl]amino]benzoyl]-5-iodo-1H-pyrrolo[2,3-b]pyridine] |  | > 1
CCC(C)S(=O)(=O)Nc1cccc(C(=O)c2c[nH]c3ncc(-c4cnc(C5CC5)nc4)cc23)c1F (stereo not shown) [Compound P-0228, N-[3-[5-(2-cyclopropylpyrimidin-5-yl)-1H-pyrrolo[2,3-b]pyridine-3-carbonyl]-2-fluoro-phenyl]butane-2-sulfonamide] |  | < 1
O=C(c1c(F)ccc(NS(=O)(=O)N2CCCC2)c1F)c1c[nH]c2ncc(-c3cnc(N4CCOCC4)nc3)cc12 [Compound P-0266, N-[2,4-difluoro-3-[5-(2-morpholinopyrimidin-5-yl)-1H-pyrrolo[2,3-b]pyridine-3-carbonyl]phenyl]pyrrolidine-1-sulfonamide] | < 0.1 | 
CC(=O)N(C)C1CCN(S(=O)(=O)Nc2cccc(C(=O)c3c[nH]c4ncc(-c5cnc(C6CC6)nc5)cc34)c2F)C1 (stereo not shown) [Compound P-0267, N-[1-[[3-[5-(2-cyclopropylpyrimidin-5-yl)-1H-pyrrolo[2,3-b]pyridine-3-carbonyl]-2-fluoro-phenyl]sulfamoyl]pyrrolidin-3-yl]-N-methyl-acetamide] | > 0.1 | 
COc1ncc(-c2cnc3[nH]cc(C(=O)c4c(F)ccc(NS(=O)(=O)N5CCCC5)c4F)c3c2)s1 [Compound P-0270, N-[2,4-difluoro-3-[5-(2-methoxythiazol-5-yl)-1H-pyrrolo[2,3-b]pyridine-3-carbonyl]phenyl]pyrrolidine-1-sulfonamide] | < 0.1 | 
CNC1CCN(S(=O)(=O)Nc2cccc(C(=O)c3c[nH]c4ncc(-c5cnc(C6CC6)nc5)cc34)c2F)C1 (stereo not shown) [Compound P-0272, N-[3-[5-(2-cyclopropylpyrimidin-5-yl)-1H-pyrrolo[2,3-b]pyridine-3-carbonyl]-2-fluoro-phenyl]-3-(methylamino)pyrrolidine-1-sulfonamide] | > 0.1 | 
O=C(c1c(F)ccc(NS(=O)(=O)N2CCCC2)c1F)c1c[nH]c2ncc(-c3ccnc(N4CCOCC4)c3)cc12 [Compound P-0284, N-[2,4-difluoro-3-[5-(2-morpholino-4-pyridyl)-1H-pyrrolo[2,3-b]pyridine-3-carbonyl]phenyl]pyrrolidine-1-sulfonamide] |  | < 1
O=C(c1c(F)ccc(NS(=O)(=O)N2CCCC2)c1F)c1c[nH]c2ncc(-c3ccnc(OC4CCC4)c3)cc12 [Compound P-0286, N-[3-[5-[2-(cyclobutoxy)-4-pyridyl]-1H-pyrrolo[2,3-b]pyridine-3-carbonyl]-2,4-difluoro-phenyl]pyrrolidine-1-sulfonamide] | < 0.1 | 
COC(=O)C(C)S(=O)(=O)Nc1cccc(C(=O)c2c[nH]c3ncc(-c4cnc(C5CC5)nc4)cc23)c1F (stereo not shown) [Compound P-0291, methyl 2-[[3-[5-(2-cyclopropylpyrimidin-5-yl)-1H-pyrrolo[2,3-b]pyridine-3-carbonyl]-2-fluoro-phenyl]sulfamoyl]propanoate] | > 0.1 | 
O=C(c1c(F)ccc(NS(=O)(=O)N2CCCC2)c1F)c1c[nH]c2ncc(-c3cc(C(F)(F)F)ncn3)cc12 [Compound P-0294, N-[2,4-difluoro-3-[5-[6-(trifluoromethyl)pyrimidin-4-yl]-1H-pyrrolo[2,3-b]pyridine-3-carbonyl]phenyl]pyrrolidine-1-sulfonamide] | < 0.1 | 
CN1CCN(c2cc(-c3cnc4[nH]cc(C(=O)c5c(F)ccc(NS(=O)(=O)N6CCCC6)c5F)c4c3)ncn2)CC1 [Compound P-0319, N-[2,4-difluoro-3-[5-[6-(4-methylpiperazin-1-yl)pyrimidin-4-yl]-1H-pyrrolo[2,3-b]pyridine-3-carbonyl]phenyl]pyrrolidine-1-sulfonamide] | < 0.1 | 

The remaining lines, values ahead:

IC50 [1] [µM] | IC50 [2] [µM] | SMILES
 | < 1 | CN(C)S(=O)(=O)Nc1ccc(F)c(C(=O)c2c[nH]c3ncc(-c4ccc(C5(C#N)CC5)cc4)cc23)c1F [Compound P-0237, 5-[4-(1-cyanocyclopropyl)phenyl]-3-[3-(dimethylsulfamoylamino)-2,6-difluoro-benzoyl]-1H-pyrrolo[2,3-b]pyridine]
 | < 1 | CCN(C)S(=O)(=O)Nc1ccc(F)c(C(=O)c2c[nH]c3ncc(-c4ccc(C5(C#N)CC5)cc4)cc23)c1F [Compound P-0239, 5-[4-(1-cyanocyclopropyl)phenyl]-3-[3-[[ethyl(methyl)sulfamoyl]amino]-2,6-difluoro-benzoyl]-1H-pyrrolo[2,3-b]pyridine]
 | < 1 | N#CC1(c2ccc(-c3cnc4[nH]cc(C(=O)c5c(F)ccc(NS(=O)(=O)N6CCCC6)c5F)c4c3)cc2)CC1 [Compound P-0248, N-[3-[5-[4-(1-cyanocyclopropyl)phenyl]-1H-pyrrolo[2,3-b]pyridine-3-carbonyl]-2,4-difluoro-phenyl]pyrrolidine-1-sulfonamide]
< 0.1 |  | CCN(C)S(=O)(=O)Nc1ccc(F)c(C(=O)c2c[nH]c3ncc(-c4cnc(N5CCN(C(=O)OC(C)(C)C)CC5)nc4)cc23)c1F [Compound P-0264, tert-butyl 4-[5-[3-[3-[[ethyl(methyl)sulfamoyl]amino]-2,6-difluoro-benzoyl]-1H-pyrrolo[2,3-b]pyridin-5-yl]pyrimidin-2-yl]piperazine-1-carboxylate]
 | < 1 | O=C(c1c(F)ccc(NS(=O)(=O)N2CCCC2)c1F)c1c[nH]c2ncc(-c3ccncc3)cc12 [Compound P-0273, N-[2,4-difluoro-3-[5-(4-pyridyl)-1H-pyrrolo[2,3-b]pyridine-3-carbonyl]phenyl]pyrrolidine-1-sulfonamide]
 | < 1 | Nc1nccc(-c2cnc3[nH]cc(C(=O)c4c(F)ccc(NS(=O)(=O)N5CCCC5)c4F)c3c2)n1 [Compound P-0280, N-[3-[5-(2-aminopyrimidin-4-yl)-1H-pyrrolo[2,3-b]pyridine-3-carbonyl]-2,4-difluoro-phenyl]pyrrolidine-1-sulfonamide]
 | < 1 | CCN(C)S(=O)(=O)Nc1ccc(F)c(C(=O)c2c[nH]c3ncc(-c4cnc(N(C)C)nc4)cc23)c1F [Compound P-0292, 5-[2-(dimethylamino)pyrimidin-5-yl]-3-[3-[[ethyl(methyl)sulfamoyl]amino]-2,6-difluoro-benzoyl]-1H-pyrrolo[2,3-b]pyridine]
< 0.1 |  | CCN(C)S(=O)(=O)Nc1ccc(F)c(C(=O)c2c[nH]c3ncc(-c4cccc(N(C)C)c4)cc23)c1F [Compound P-0302, 5-[3-(dimethylamino)phenyl]-3-[3-[[ethyl(methyl)sulfamoyl]amino]-2,6-difluoro-benzoyl]-1H-pyrrolo[2,3-b]pyridine]
< 0.1 |  | CCN(C)S(=O)(=O)Nc1ccc(F)c(C(=O)c2c[nH]c3ncc(-c4ccc(C(=O)NC5CC5)nc4)cc23)c1F [Compound P-0312, N-cyclopropyl-5-[3-[3-[[ethyl(methyl)sulfamoyl]amino]-2,6-difluoro-benzoyl]-1H-pyrrolo[2,3-b]pyridin-5-yl]pyridine-2-carboxamide]
> 0.1 |  | C[C@H]1CCN(S(=O)(=O)Nc2ccc(F)c(C(=O)c3c[nH]c4ncc(-c5cnc(C6CC6)nc5)cc34)c2F)C1 [Compound P-0320, (3S)—N-[3-[5-(2-cyclopropylpyrimidin-5-yl)-1H-pyrrolo[2,3-b]pyridine-3-carbonyl]-2,4-difluoro-phenyl]-3-methyl-pyrrolidine-1-sulfonamide]
